Experimental data reported in patent publication US10077246B2, “Tricyclic prodrugs” (Glactone Pharma Development AB, priority 2014, dated 2018).

Experiments:
[1] = Chemical stability in phosphate buffered saline; type: physicochemical; details: for half-life at 10 μM: 0.1 M phosphate buffered saline, 0.1 M PBS pH 7.4, 10 μM, room temperature; for chemical stability in 0.1 M PBS (in words): 0.1 M PBS (pH 7.4)
Procedure: The chemical stability of test compounds was determined in 96-well plate format. Compounds in DMSO stock solutions were diluted (n=2) in the required matrix (0.1 M phosphate buffered saline) to a concentration of 10 μM (2% DMSO final) and mixed at room temperature on an orbital shaker, with aliquots removed at 2 and 4 hours for testing. DMSO, containing an analytical internal standard, was added to the aliquots, vortex-mixed and analysed immediately by LC-MS/MS. Equivalent T=0 samples were also included, with sample preparation staggered to allow sequential injections of timed aliquots and the T=0 samples.
The amount of compound remaining (expressed as %) was determined from the MS response in each sample relative to that in the T=0 samples (normalized for internal standard).
Ln plots of the % remaining were used to determine the half-life of compound disappearance from the relationship:
t1/2 (min)=−0.693/λ, where λ is the slope of the Ln concentration vs time curve.

LNCaP = experiment: WST-1 cell proliferation assay, LNCaP; type: cell-based; details: LNCaP (pSTAT3 −), 72 hours/10 μM, percent of untreated control cells
Procedure: (§1) The functional activity of example 15 in comparison to galiellalactone was evaluated using WST-1 proliferation assay (J. Biol. Chem. 2014, 289:15969-15978) on DU145, PC-3, LNCaP or IL-6 stimulated LNCaP. The cells were cultured in 96-well plates (2000 cells/well in 200 μl of medium) and allowed to set for 24 h. The cells were treated with 10 μM of 4α-fluoro-galiellalactone or galiellalactone for 72 h. Samples were made in triplicate. 20 μl WST-1 solution (Roche Applied Science) was added per well and incubated at 37° C. for 4 h. The absorbance of each well was measured using a scanning multi-well spectrophotometer, ELISA reader at a wavelength of 450 nm and reference wavelength of 690 nm. The results presented in Table 3 below are presented as percent of untreated control cells.

PC-3 = experiment: WST-1 cell proliferation assay, PC-3; type: cell-based; details: PC3 (pSTAT3 −), 72 hours/10 μM, percent of untreated control cells
Procedure: as §1

IL-6 stimulated LNCaP = experiment: WST-1 cell proliferation assay, IL-6 stimulated LNCaP; type: cell-based; details: LNCaP-IL6 (pSTAT3 +), 72 hours/10 μM, percent of untreated control cells
Procedure: as §1

STAT3 = experiment: WST-1 proliferation, pSTAT3 negative versus pSTAT3 positive cell lines; type: cell-based; details: 10 μM; pSTAT3 negative PC3, LNCaP versus pSTAT3 positive cells
Procedure: as §1
On the other hand, the pSTAT3 positive cells are equally sensitive to 4α-fluoro-galiellalactone and galiellalactone.

DU145 = experiment: WST-1 cell proliferation assay, DU145; type: cell-based; details: DU145 (pSTAT3 +), 72 hours/10 μM, percent of untreated control cells
Procedure: as §1

[2] = Pharmacokinetic (PK) study in mice, oral dosing, galiellalactone quantified in plasma; type: in vivo; details: for AUC 0-t / AUC 0-∞ / plasma exposure of galiellalactone compared to oral administration of galiellalactone itself (in words): oral 10 mg/kg; for AUC 0-t / AUC 0-∞: galiellalactone (GL) in plasma; for AUC 0-t: 0 minutes to last quantifiable data point; for AUC 0-∞: extrapolated to infinity
Procedure: The usefulness of the compounds, as defined in the embodiments herein, as prodrugs to enhance the plasma exposure of tricyclic compounds that may be used treating, revoking, mitigating, alleviating and/or preventing different forms of cancer, were evaluated in an in vivo pharmacokinetic (PK) study in mice.
Doses of the test items were prepared at a drug concentration of 0.5 mg/mL in 5% DMSO in 50 mM citrate buffer (citric acid/sodium citrate), pH 4.0.
Oral doses were administered in a volume of 20 mL/kg (10 mg/kg) to groups of 24 mice and blood samples taken, under terminal barbiturate anaesthesia, at eight time-points out to 8 hours post-dose (n=3 mice per time-point).
Blood samples were transferred to tubes containing EDTA as anticoagulant and, as soon as practicable after collection, samples were centrifuged to yield plasma which was immediately frozen awaiting analysis. Following blood collection, brains were removed from all animals for possible future analysis and immediately frozen by immersion in liquid nitrogen. All samples were analyzed using LC-MS/MS.
Plasma proteins were precipitated and compounds extracted by the addition of three volumes of acetonitrile containing analytical internal standard (reserpine). Samples were centrifuged for 30 minutes at 3452 g in a Sorvall bench centrifuge and the supernatant fractions removed for MS analysis.
Quantification of the active compound e.g. galiellalactone, was by extrapolation from calibration lines prepared in control mouse plasma and analyzed concurrently with experimental samples and Quality Control (QC) samples prepared in control mouse plasma. If the compounds were instable in mouse plasma, calibration lines were constructed in water for qualitative MS comparison with any signal seen in plasma samples.
Pharmacokinetic parameters of the test items were determined using the mean data from the n=3 mice at each time-point. Non-compartmental analysis was performed using the software package PK Solutions 2.0 from Summit Research Services. AUC values were calculated by the trapezoidal method.
AUC 0-t: Area under the plasma drug concentration/time curve from 0 minutes to last quantifiable data point
AUC 0-∞: Area under the curve from 0 minutes extrapolated to infinity

IL-6/STAT3 signaling = details: cited from earlier work
[3] = test system: STAT3 expressing DU145 prostate cancer cells; details: Prostate 68:269-280 (2008); cited from earlier work

| SMILES | half-life at 10 μM [1] | AUC 0-t [2] | AUC 0-∞ [2] | further results |
| --- | --- | --- | --- | --- |
| C[C@H]1C[C@H]2CC[C@H]3OC(=O)C([C@@H]1SCCS(=O)(=O)[O-])[C@@]23O.[Na+] (stereo partly drawn) [Example 8, 3β-(ethyl sulphonate)-2aβ,3-dihydrogaliellalactone sodium] | > 2.5 h | – | – | – |
| C[C@@]1(F)C=C2C(=O)O[C@@H]3CC[C@H](C1)[C@]23O [Example 15, 4α-fluoro-galiellalactone] | – | – | – | % Remaining Proliferation (LNCaP): 105%; % Remaining Proliferation (PC-3): 68%; % Remaining Proliferation (IL-6 stimulated LNCaP): 20%; selectivity for STAT3 compared with galiellalactone (in words) (STAT3): significantly more selective; % Remaining Proliferation (DU145): 16% |
| COC(=O)[C@H](CCS[C@H]1C2C(=O)O[C@@H]3CC[C@H](C[C@@H]1C)[C@]23O)NC(C)=O (stereo partly drawn) [Example 12, 3β-(N-acetyl-L-homocysteinemethyl ester)-2aβ,3-dihydrogaliellalactone] | – | 150 μg GL/mL•min | 155 μg GL/mL•min | – |
| COC(=O)[C@H](CS[C@H]1C2C(=O)O[C@@H]3CC[C@H](C[C@@H]1C)[C@]23O)NC(=O)C(C)C (stereo partly drawn) [Example 5] | > 2.3 h | 15 μg GL/mL•min | 21 μg GL/mL•min | – |
| C[C@H]1C[C@H]2CC[C@H]3OC(=O)C([C@@H]1SCC(N)C(=O)O)[C@@]23O (stereo partly drawn) [reference compound] | 0.233 h | – | – | – |
| COC(=O)[C@H](CS[C@H]1C2C(=O)O[C@@H]3CC[C@H](C[C@@H]1C)[C@]23O)NC(=O)OC(C)(C)C (stereo partly drawn) [Example 6, 3β-(N-(tert-butylcarbonate)-L-cysteinemethyl ester)-2aβ,3-dihydrogaliellalactone] | > 2.5 h | 11 μg GL/mL•min | 17 μg GL/mL•min | – |
| COC(=O)[C@H](CS[C@H]1C2C(=O)O[C@@H]3CC[C@H](C[C@@H]1C)[C@]23O)NC(=O)c1ccccc1F (stereo partly drawn) [Example 13, 3β-(N-(2-fluorobenzoyl)-L-cysteinemethyl ester)-2aβ,3-dihydrogaliellalactone] | – | 7.8 μg GL/mL•min | 11 μg GL/mL•min | – |
| C[C@H]1C[C@H]2CC[C@H]3OC(=O)C([C@@H]1SCC(NC(=O)CCC(N)C(=O)O)C(=O)NCC(=O)O)[C@@]23O (stereo partly drawn) [Example 9, 3β-(glutathione)-2aβ,3-dihydrogaliellalactone] | > 2.5 h | – | – | – |
| COC(=O)[C@H](CS[C@H]1C2C(=O)O[C@@H]3CC[C@H](C[C@@H]1C)[C@]23O)NC(C)=O (stereo partly drawn) [Example 3, 3β-(N-acetyl L-cysteinemethyl ester)-2aβ,3-dihydrogaliellalactone] | > 2.5 h | 117 μg GL/mL•min | 120 μg GL/mL•min | chemical stability in 0.1 M PBS (in words) [1]: chemically stable; plasma exposure of galiellalactone compared to oral administration of galiellalactone itself (in words) [2]: significantly improve |
| C[C@@H]1C=C2C(=O)O[C@@H]3CC[C@H](C1)[C@]23O [Galiellalactone, (−)-Galiellalactone, reference compound] | – | 5 μg GL/mL•min | 6 μg GL/mL•min | inhibition of IL-6/STAT3 signaling (IL-6/STAT3 signaling): submicromolar; % Remaining Proliferation (LNCaP): 77%; % Remaining Proliferation (PC-3): 31%; % Remaining Proliferation (IL-6 stimulated LNCaP): 17%; AUC(0-inf) ([2]; mouse, oral administration 10 mg/kg, plasma galiellalactone): 95 ng·h/mL; proliferation of DU145 prostate cancer cells (in words) [3]: inhibits the proliferation; % Remaining Proliferation (DU145): 18% |
| CCCCS[C@H]1C2C(=O)O[C@@H]3CC[C@H](C[C@@H]1C)[C@]23O (stereo partly drawn) [Example 1, 3β-(Butyllthio)-2aβ,3-dihydrogaliellalactone] | – | 85 μg GL/mL•min | 102 μg GL/mL•min | – |
| C[C@H]1C[C@H]2CC[C@H]3OC(=O)C([C@@H]1N1CCCC1)[C@@]23O.Cl (stereo partly drawn) [drawing 45, reference compound] | 0.3 h | – | – | – |
| COC(=O)[C@H](CS[C@H]1C2C(=O)O[C@@H]3CC[C@H](C[C@@H]1C)[C@]23O)NC(=O)[C@@H](N)C(C)C (stereo partly drawn) [Example 14, 3β-(N-(L-valine)-L-cysteinemethyl ester)-2aβ,3-dihydrogaliellalactone] | – | 97 μg GL/mL•min | 101 μg GL/mL•min | chemical stability in 0.1 M PBS (in words) [1]: chemically stable |
| COC(=O)C(N)CS[C@H]1C2C(=O)O[C@@H]3CC[C@H](C[C@@H]1C)[C@]23O (stereo partly drawn) [reference compound] | 0.367 h | – | – | – |
| CC(=O)N[C@@H](CS[C@H]1C2C(=O)O[C@@H]3CC[C@H](C[C@@H]1C)[C@]23O)C(N)=O (stereo partly drawn) [Example 7, 3β-(N-acetyl L-cysteine amide)-2aβ,3-dihydrogaliellalactone] | > 2.5 h | – | – | – |
| CCOC(=O)[C@H](CS[C@H]1C2C(=O)O[C@@H]3CC[C@H](C[C@@H]1C)[C@]23O)NC(C)=O (stereo partly drawn) [Example 4, 3β-(N-acetyl L-cysteineethyl ester)-2aβ,3-dihydrogaliellalactone] | – | 20 μg GL/mL•min | 22 μg GL/mL•min | – |
| C[C@H]1C[C@H]2CC[C@H]3OC(=O)C([C@@H]1Sc1ccccc1)[C@@]23O (stereo partly drawn) [Example 2, 3β-(Phenylthio)-2aβ,3-dihydrogaliellalactone] | – | 36 μg GL/mL•min | 41 μg GL/mL•min | – |
| C[C@H]1C[C@H]2CC[C@H]3OC(=O)C([C@@H]1N1CCCC1)[C@@]23O.Cl (stereo partly drawn) [drawing 42, 3β-(N-pyrrolidine)-2aβ,3-dihydrogaliellalactone, reference compound] | – | 2.2 μg GL/mL•min | 2.5 μg GL/mL•min | chemical stability in 0.1 M PBS (in words) [1]: very unstable; plasma exposure of galiellalactone compared to oral administration of galiellalactone itself (in words) [2]: do not increase the AUC |
